Measurements: patent US20240122923A1, “METHODS OF TREATING HIDRADENITIS SUPPURATIVA” (AbbVie Inc., priority 2022, published 2024)
Where “and” joins values, the source holds several entries; their conditions need not be identical. Identical values can stand only once.

Assays:
[1] = system: adult human subjects with moderate to severe Hidradenitis Suppurativa (HS); test: Phase 2 randomized, double-blind, placebo-controlled study of upadacitinib, efficacy incl. post-hoc analysis through week 40; type: in vivo; details: for HiSCR at Week 12, % (N), stratum TNF-Naïve: N=35; for subjects achieving HiSCR at Week 12, n (%): upadacitinib 30 mg QD oral, N=47; for subjects achieving Pain NRS30 at Week 12 among subjects with Baseline NRS ≥ 3, n (%): upadacitinib 30 mg QD, N=33
Text: (§1) This study was a Phase 2, multicenter, randomized, double-blind, parallel-group, placebo-controlled study to evaluate the efficacy and safety of upadacitinib in adult human subjects with moderate to severe Hidradenitis Suppurativa (HS).
(§2) The duration of the study was 57 weeks, including an approximately 35-day screening period followed by a 48-week double-blinded treatment period and a 30-day follow-up visit after the last dose of study drug. Subjects were randomized in a 2:1 ratio to 1 of the 2 arms as shown below: • Upadacitinib 30 mg once daily (QD) (N=40): Daily oral doses of upadacitinib 30 mg from the Baseline visit through Period 1 and Period 2. • Placebo (N=20): Placebo for upadacitinib from the Baseline visit up to the Week 12 visit (Period 1). At Week 12, subjects were switched to blinded upadacitinib 15 mg QD through Period 2.
The primary objective of this study was to assess the efficacy and safety of upadacitinib 30 mg QD in adult subjects with moderate to severe HS. The primary efficacy objective was assessed based on the achievement of HiSCR after 12 weeks treatment.
The primary endpoint was Hidradenitis Suppurativa Clinical Response (HiSCR) at Week 12, where HiSCR is defined as at least 50% reduction in the total abscess and inflammatory nodule (AN) count with no increase in abscess count and no increase in draining fistula count relative to Baseline.
The secondary endpoint was Pain Numerical Rating Scale (NRS30) at Week 12: the achievement of at least 30% reduction and at least 1 unit reduction from Baseline in NRS30 in Patient's Global Assessment of Skin Pain (PGA Skin Pain) at Week 12, among subjects with Baseline NRS≥3.
The following additional efficacy endpoints were evaluated: • 1. Experience of flare, defined as an increase in AN count of at least 25% with a minimum increase of 2 relative to Baseline • 2. Change from Baseline in Dermatology Life Quality Index (DLQI) • 3. Change from baseline in Hidradenitis Suppurativa Symptom Assessment (HSSA) • 4. Change from baseline in HS-related swelling, assessed based on the HSSA • 5. Change from baseline in HS-related odor, assessed based on the HSSA • 6. Change from baseline in HS-related worst drainage, assessed based on the HSSA
For the primary and secondary endpoints, comparisons of upadacitinib vs. placebo were made with 3 different analysis strategies, as summarized in Table 1 below:
For the additional endpoints, comparisons were made for upadacitinib vs. historical reference value of placebo, and upadacitinib vs. in-trial placebo subjects.
For categorical variables, the primary approach to handle missing data was Non-Responder Imputation [NRI] incorporating Multiple Imputation [MI]. For continuous variables, missing data was handled by Mixed-effect Model Repeat Measurement (MMRM). Missing data for long-term efficacy in Period 2 were handled based on the observed case (OC).
A post-hoc efficacy assessment through week 40 was performed in the study of Example 1. The analysis included the proportion of patients achieving ≥75% and ≥90% reduction from baseline in AN count with no increase in abscess or draining fistula count (HiSCR 75 and HiSCR 90, respectively) and the proportion of patients achieving ≥55% reduction in International HS Severity Score System endpoint (IHS4-55), which dynamically assesses inflammatory nodules, abscesses, and draining tunnels.

[2] = system: adult human subjects with moderate to severe Hidradenitis Suppurativa (HS); test: Phase 2 study of upadacitinib in HS, safety (TEAEs, discontinuation due to adverse event); type: in vivo
Text: as §1, §2
Treatment-emergent adverse events (TEAEs), adverse events of interests (AESIs), and potentially clinically important (PCI) laboratory changes were monitored in Period 1.

[3] = UPA 30 mg, analysis vs historical reference value of PBO
[4] = UPA 30 mg, analysis vs in-trial PBO
[5] = Week 12, UPA 30 mg, Observed Case, n=39
[6] = Week 40, PBO/UPA 15 mg (switched at week 12), NRI-C, n=19
[7] = Week 40, UPA 30 mg/UPA 30 mg, NRI-C, n=47
[8] = Week 40, UPA 30 mg/UPA 30 mg, Observed Case, n=29

In the case of `CC[C@@H]1CN(C(=O)NCC(F)(F)F)C[C@@H]1c1cnc2cnc3[nH]ccc3n12` [upadacitinib], the “HiSCR at Week 12, % (N), stratum TNF-Naïve” value ([1]; UPA 30 mg, NRI-C) is reported as 37.1%, the “HiSCR at Week 12, % (N), stratum TNF-Naïve” value ([1]; UPA 30 mg, NRI-C, listed as UPA) is reported as 37.1% (N = 35) and the “Change in DLQI at Week 12, LS Mean (SE)” value [1, 3] is reported as −2.4 (1.05). The Change in HSSA odor at Week 12, LS Mean (SE) [1, 3] was -1.2, the Change in HSSA swelling at Week 12, LS Mean (SE) [1, 3] was -0.931 and the Change in HSSA total symptom at Week 12, LS Mean (SE) [1, 3] was -0.969. The “Change in HSSA worst drainage at Week 12, LS Mean (SE)” value [1, 3] was −1.131 (0.31), the Change in DLQI at Week 12, LS Mean (SE) [1, 4] was -2.4 and the “Change in HSSA odor at Week 12, LS Mean (SE)” value [1, 4] was −1.171 (0.36). The “Change in HSSA swelling at Week 12, LS Mean (SE)” value [1, 4] was −0.922 (0.34), the “Change in HSSA total symptom at Week 12, LS Mean (SE)” value [1, 4] was −1.034 (0.27) and the “Change in HSSA worst drainage at Week 12, LS Mean (SE)” value [1, 4] was −1.259 (0.30). The “Patients achieving HiSCR 90, n (%)” value ([1]; Week 12, UPA 30 mg, NRI-C, n=47, listed as UPA) was 8.5% and 4 (8.5)^‡ %, the “Patients achieving HiSCR 75, n (%)” value [1, 5] was 10 (25.6) % and the “Patients achieving HiSCR 90, n (%)” value [1, 5] was 4 (10.3) %. The “Patients achieving HiSCR, n (%)” value [1, 5] was 18 (46.2) %, the “Patients achieving IHS4-55, n (%)” value [1, 5] was 19 (48.7) % and the “Patients achieving HiSCR 75, n (%)” value [1, 6] was 7 (36.8) %. For the same compound, the “Patients achieving HiSCR 90, n (%)” value [1, 6] was 4 (21.1) %, the “Patients achieving HiSCR, n (%)” value [1, 6] was 10 (52.6) % and the “Patients achieving IHS4-55, n (%)” value [1, 6] was 12 (63.2) %. The “Patients achieving IHS4-55, n (%)” value ([1]; Week 40, PBO/UPA 15 mg (switched at week 12), Observed Case, n=14) was 85.7%, the “Patients achieving IHS4-55, n (%)” value ([1]; Week 40, PBO/UPA 15 mg (switched at week 12), Observed Case, n=14, listed as UPA) was 12 (85.7) % and the “Patients achieving HiSCR 75, n (%)” value [1, 7] was 18 (38.3) %. For the same compound, the “Patients achieving HiSCR 90, n (%)” value [1, 7] was 9 (19.1) %, the “Patients achieving HiSCR, n (%)” value [1, 7] was 22 (46.8) % and the “Patients achieving IHS4-55, n (%)” value [1, 7] was 21 (44.7) %. The “Patients achieving HiSCR 75, n (%)” value [1, 8] was 18 (62.1) %, the “Patients achieving IHS4-55, n (%)” value [1, 8] was 72.4% and the “Patients achieving IHS4-55, n (%)” value ([1]; Week 40, UPA 30 mg/UPA 30 mg, Observed Case, n=29, listed as UPA) was 21 (72.4) %. The “subjects achieving HiSCR at Week 12, n (%)” value ([1]; NRI-C) was 38.3%, the “subjects achieving HiSCR at Week 12, n (%)” value ([1]; NRI-C, listed as Upadacitinib) was 18 (38.3) % and the “subjects achieving Pain NRS30 at Week 12 among subjects with Baseline NRS ≥ 3, n (%)” value (from here on “subjects achieving Pain NRS30 … (%)”) ([1]; NRI-C) was 36.4%. The “subjects achieving Pain NRS30 … (%)” value ([1]; NRI-C, listed as UPA) was 12 (36.4%), the “subjects achieving Pain NRS30 … (%)” value ([1]; NRI-C, listed as Upadacitinib) was 12 (36.4) % and the “most frequently reported TEAE (≥5%)” value ([2]; Period 1, upadacitinib 30 mg QD group) was “headache, dizziness, and urinary tract infection”. The “Discontinued Study Drug during Period 2 (primary reason): Adverse event, n (%)” value ([2]; Placebo/UPA 15 mg, N=19) was 0, the “Discontinued Study Drug during Period 1: Adverse Event, n (%)” value ([2]; UPA 30 mg, N=47) was “(2.1) %” and the “Discontinued Study Drug during Period 2 (primary reason): Adverse event, n (%)” value ([2]; UPA 30 mg, N=47) was 0.
